Values joined by “and” are separate entries in the source; they are usually repeats but may differ in a detail not shown here. Equal values may be shown once. Read-outs that look alike come from different tables or passages of the source.
What was measured:
BCRP (S1M180 cells) [1] = molecular target: T1, BCRP (S1M180 cells) (Homo sapiens, UniProt Q9UNQ0, R482G); assay: Cell proliferation (MTS) assay: reversal of BCRP-mediated topotecan/DOX resistance in S1M180; assay type: cell-based
T1 construct: endogenous in cells; host or cells: S1M180 (human colon carcinoma, mitoxantrone-selected)
T1 sequence (Q9UNQ0 1-655 R482G): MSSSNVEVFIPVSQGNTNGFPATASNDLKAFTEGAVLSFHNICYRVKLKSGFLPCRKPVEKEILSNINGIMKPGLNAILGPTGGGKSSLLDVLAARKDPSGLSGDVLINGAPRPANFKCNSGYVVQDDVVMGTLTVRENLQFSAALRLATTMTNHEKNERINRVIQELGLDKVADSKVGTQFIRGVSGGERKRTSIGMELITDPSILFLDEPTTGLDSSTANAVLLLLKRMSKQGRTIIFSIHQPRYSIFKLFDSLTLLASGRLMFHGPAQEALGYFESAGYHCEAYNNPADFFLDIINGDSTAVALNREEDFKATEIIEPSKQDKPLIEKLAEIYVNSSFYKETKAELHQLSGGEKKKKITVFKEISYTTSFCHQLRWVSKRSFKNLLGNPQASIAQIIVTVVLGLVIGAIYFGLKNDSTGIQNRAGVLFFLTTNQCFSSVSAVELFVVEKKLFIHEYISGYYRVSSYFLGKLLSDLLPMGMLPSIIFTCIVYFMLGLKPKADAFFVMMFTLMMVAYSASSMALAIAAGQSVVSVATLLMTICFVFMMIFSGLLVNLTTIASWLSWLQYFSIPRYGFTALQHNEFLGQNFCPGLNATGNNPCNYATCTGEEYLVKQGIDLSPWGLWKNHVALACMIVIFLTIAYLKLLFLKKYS
Procedure: In total, 6500 cells of S1M180 or MCF7-MX100 were incubated with various doses of topotecan or DOX and modulators. The final volume in each well of 96-well plates was 200 µL. The plates were then incubated for 5 days at 37 °C. The CellTiter 96 AQueous Assay (Promega) was used to measure cell proliferation. According to the manufacturer’s instructions, MTS (2 mg/mL) and PMS (0.92 mg/mL) were mixed in a ratio of 20:1. An aliquot (10 μL) of the freshly prepared MTS/PMS mixture was added into each well, and the plate was incubated for 2 h at 37 °C. Optical absorbance at 490 nm was then recorded with microplate absorbance reader (Bio-Rad). IC50 values were calculated from the dose-response curves of MTS assays (Prism 4.0).

P-gp (LCC6MDR cells) = molecular target: T2, P-gp (LCC6MDR cells) (Homo sapiens, UniProt P08183); assay: Reversal of P-gp-mediated paclitaxel resistance in LCC6MDR; assay type: cell-based; conditions: value without asterisk; read-out: EC50 needed for reversing P-gp-mediated paclitaxel resistance, LCC6MDR
T2 construct: expressed in transfected cells; host or cells: LCC6MDR (human breast cancer line)

BCRP (S1M180 cells) [2] = molecular target: T1, BCRP (S1M180 cells); assay: Drug accumulation assay in S1M180; assay type: cell-based
Procedure: Figure 2 Effect of Ac15(Az8)2 on intracellular accumulation of BCRP-substrates in S1 and S1M180 cells. Cells were pre-treated with 0.1% DMSO, 100 nM, or 1000 nM Ac15(Az8)2 and then incubated with BCRP substrates. (A) Topotecan accumulation. (B) DOX accumulation. The intracellular level of drug after treatment was normalized to that of S1 cells after incubating with 0.1% DMSO. Student unpaired two-tailed t-test was conducted as indicated (** p < 0.01, *** p < 0.001). (C) To measure DOX efflux, S1M180 cells were pre-incubated with medium containing 20 μM DOX for 1 h at 37 °C. Cells were then washed and further incubated with or without 1 µM of Ac15(Az8)2. At 0, 5, 10, 30, 60, 120, and 180 min, the cells were harvested to measure the intracellular DOX level. (D) To determine intracellular Ac15(Az8)2 concentration, 1 × 10^7 cells were incubated with 1 µM of Ac15(Az8)2 at 37 °C for 2 h. Cells were then washed with ice-cold PBS. To the cell pellet, acetonitrile was added to lyse the cells, and the supernatant was saved for Ac15(Az8)2 determination using UPLC–MS/MS.
Briefly, 1 × 10^6 cells of S1 and S1M180 cells were pre-incubated with 100 nM or 1000 nM Ac15(Az8)2 for 2 h and followed by 50 µM of topotecan or 20 µM of DOX for 1-h incubation. DMSO at 0.1% was used as a negative control. After incubation, the cells were spun down and washed with cold PBS, pH7.4 for 2 times and lysed with 100 μL of lysis buffer (0.75 M HCl, 0.2% Triton-X100 in isopropanol) with vigorous vortex. The lysate was further incubated at 37 °C for 20 min. After incubation, the lysate was spun down, and 100 μL of supernatant was saved and seeded into a black 96-well microtiter plate. The fluorescence level of DOX was determined by a fluorescence microplate reader (BMG Technologies) using excitation and an emission wavelength pair of 460 nm and 610 nm.

BCRP-ATPase = molecular target: T3, BCRP-ATPase (Homo sapiens, UniProt Q9UNQ0, R482G); assay: Vanadate-sensitive BCRP-ATPase activity (S1M180 microsome fraction); assay type: biochemical; conditions: 2.5 mM ATP, 1 h
T3 construct: endogenous in cells; host or cells: S1M180 (human colon carcinoma, mitoxantrone-selected)
T3 sequence (Q9UNQ0 1-655 R482G): T1 sequence (Q9UNQ0 1-655 R482G)
Procedure: Ouabain (Na^+/K^+-ATPase inhibitor) and sodium azide (F-type ATPase inhibitor) were added to S1M180 microsome fraction to inhibit non-ABC transporter ATPase activities. Sodium orthovanadate inhibits ABC transporter ATPase activity and is used to calculate vanadate-ensitive activity by subtraction from the total ATPase activity (without sodium orthovanadate). […] After reaction was stopped, inorganic phosphate level was determined using colorimetry method. The percentages of vanadate-sensitive BCRP-ATPase activity were shown as mean ± S.D.
The membrane fraction of S1M180 cells was prepared as previously reported [48]. […] The absorbance of 655 nm was measured by CLARIOstar® microplate reader (BMG). […]

S1 xenograft = assay: In vivo efficacy in parental S1 xenograft; design: species or system Balb/c nu nu mice; conditions: four times (700% without treatment)
Source text: (A) S1 xenograft. (B) S1M180 xenograft. There were 3 treatment groups in S1 and S1M180 xenograft model. Treatments were given as indicated by an arrow (↑). % of tumor volume reduction was compared among different treatment groups on days 55 and 71. a, b, and c = mean tumor volume of solvent control, topotecan alone, and combination treatment groups on day 55, respectively. d and e = mean tumor volume of topotecan alone and combination treatment groups on day 71. (C) Tumor weight of S1M180-bearing mice on termination day. (D) % change of tumor volume and tumor doubling time of S1M180 xenograft were determined on days 55 and 71. […] Number of animal death was monitored during the efficacy study. (E) Body weight of S1M180-bearing mice. (F) To measure plasma and intratumor level of topotecan, S1M180-bearing mice were administered with 45 mg/kg (I.P.) of Ac15(Az8)2 one hour prior to 6 mg/kg (I.P.) of topotecan administration. Five hours after topotecan administration, the mice were sacrificed. Plasma and tumor were collected for analyzing topotecan level using UPLC–MS/MS. Student’s unpaired two-tailed t-test was performed between combination group and topotecan alone group or solvent control group as indicated (* p < 0.05, ** p < 0.01, *** p < 0.001).

[3] = 100 nM or 1000 nM Ac15(Az8)2, 2 h pre-incubation

T2 sequence (P08183 whole entry): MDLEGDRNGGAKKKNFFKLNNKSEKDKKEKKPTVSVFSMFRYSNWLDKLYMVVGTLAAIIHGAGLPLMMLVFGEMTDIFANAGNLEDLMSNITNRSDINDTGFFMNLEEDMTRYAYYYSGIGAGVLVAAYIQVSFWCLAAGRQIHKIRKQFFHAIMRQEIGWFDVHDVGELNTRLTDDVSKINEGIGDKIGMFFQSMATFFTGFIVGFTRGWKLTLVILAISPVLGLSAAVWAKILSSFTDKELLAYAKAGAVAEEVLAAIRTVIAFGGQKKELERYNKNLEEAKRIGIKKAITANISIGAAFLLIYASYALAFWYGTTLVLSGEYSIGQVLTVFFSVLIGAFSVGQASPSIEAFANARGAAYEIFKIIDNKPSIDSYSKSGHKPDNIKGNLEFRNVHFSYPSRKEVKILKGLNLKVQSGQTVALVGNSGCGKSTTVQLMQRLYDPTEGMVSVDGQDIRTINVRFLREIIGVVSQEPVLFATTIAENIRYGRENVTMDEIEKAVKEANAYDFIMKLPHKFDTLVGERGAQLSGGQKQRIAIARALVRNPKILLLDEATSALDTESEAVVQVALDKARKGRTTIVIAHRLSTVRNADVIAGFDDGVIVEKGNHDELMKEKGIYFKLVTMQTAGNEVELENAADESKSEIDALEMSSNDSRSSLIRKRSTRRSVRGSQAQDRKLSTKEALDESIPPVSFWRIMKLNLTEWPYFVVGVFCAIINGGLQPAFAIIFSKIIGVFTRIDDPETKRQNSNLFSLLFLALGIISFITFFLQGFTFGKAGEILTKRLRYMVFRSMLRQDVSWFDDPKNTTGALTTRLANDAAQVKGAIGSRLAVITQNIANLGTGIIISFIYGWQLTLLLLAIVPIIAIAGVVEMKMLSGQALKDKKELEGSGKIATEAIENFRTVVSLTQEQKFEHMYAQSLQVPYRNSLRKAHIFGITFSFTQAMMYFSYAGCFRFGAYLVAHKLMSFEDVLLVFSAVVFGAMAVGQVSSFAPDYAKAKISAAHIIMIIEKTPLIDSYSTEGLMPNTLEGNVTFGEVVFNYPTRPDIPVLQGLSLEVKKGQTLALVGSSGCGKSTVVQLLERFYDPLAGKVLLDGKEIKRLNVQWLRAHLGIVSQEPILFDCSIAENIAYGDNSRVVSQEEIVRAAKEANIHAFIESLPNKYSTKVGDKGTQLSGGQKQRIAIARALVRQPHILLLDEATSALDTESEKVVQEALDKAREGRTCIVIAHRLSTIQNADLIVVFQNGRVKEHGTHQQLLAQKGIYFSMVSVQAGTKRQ

Row | Structure (SMILES) | EC50 (BCRP (S1M180 cells) [1]; HEK293/R2, MCF7-MX100 and S1M180, summary of Table 2, read-out: EC50 for reversing topotecan and DOX resistance in three BCRP-overexpressed cell lines (range)) [nM] | EC50 (BCRP (S1M180 cells) [1]; concentration reducing IC50 of anticancer drug by half, mean ± S.D., n = 3–4, read-out: EC50 needed for reversing BCRP-mediated DOX resistance, S1M180) | EC50 (BCRP (S1M180 cells) [1]; concentration reducing IC50 of anticancer drug by half, mean ± S.D., n = 3–4, read-out: EC50 needed for reversing BCRP-mediated topotecan resistance, S1M180) [nM] | EC50 (BCRP (S1M180 cells) [1]; range over DOX and topotecan resistance of Table 2, read-out: EC50 for reversing resistance in S1M180 (range)) [nM] | EC50 (P-gp (LCC6MDR cells)) [nM] | Effect on DOX accumulation in S1M180 (BCRP (S1M180 cells) [2]; [3]) | Effect on topotecan accumulation in S1M180 (BCRP (S1M180 cells) [2]; [3]) | IC50 (BCRP-ATPase) [nM] | Xenograft volume on the 11th day (S1 xenograft; topotecan 2 mg/kg + 45 mg/kg Ac15(Az8)2 I.P. every other day) [%] | Topotecan accumulation in S1M180, fold less than parental S1 (BCRP (S1M180 cells) [2]; 50 µM topotecan, 1 h, p < 0.01) | Xenograft volume on the 11th day (S1 xenograft; topotecan alone 2 mg/kg I.P. every other day) [%]
1 | COC(=O)c1cccc(COc2c(-c3ccc(OCCOCCn4cc(CN(Cc5ccccc5)Cc5cn(CCOCCOc6ccc(-c7oc8ccccc8c(=O)c7OCc7cccc(C(=O)OC)c7)cc6)nn5)nn4)cc3)oc3ccccc3c2=O)c1 [Ac15(Az8)2] | 3 to 72 | 56 nM and 56.1 nM | 72 ± 12 | 56 to 72 | > 3000 | increase the accumulation | increase the accumulation | 7.5 | 200 | – | –
2 | CC[C@@]1(O)C(=O)OCc2c1cc1n(c2=O)Cc2cc3c(CN(C)C)c(O)ccc3nc2-1 [topotecan] | – | – | – | – | – | – | – | – | – | about 2.1 fold | 200

Source: paper PMC9653733, “Characterization of a Potent, Selective, and Safe Inhibitor, Ac15(Az8)2, in Reversing Multidrug Resistance Mediated by Breast Cancer Resistance Protein (BCRP/ABCG2)” (International Journal of Molecular Sciences, 2022)
